Reference: patent US10508120B2, “TYK2 inhibitors and uses thereof” (Nimbus Lakshmi, Inc., priority 2017, dated 2019)
Like-named read-outs stand apart in the source and are kept apart here.

Experiments:
[1] = target: human TYK2 (JH2domain-pseudokinase) (Homo sapiens (Human), UniProt P29597); test: TYK2 JH2 Domain Binding Assay (KINOMEscan)
In short: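 Competition binding of an NFkB-DBD fusion of human TYK2 JH2 (G556–D888), expressed in HEK293 and used as crude extract at <0.1 nM, against immobilized ligand beads; 1 h at room temperature in PBS/Tween/DTT/BSA buffer, 0.9% DMSO.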

Tyk2 kinase domain (DH1) = Tyk2 kinase domain (DH1) (Homo sapiens (Human), UniProt P29597); test: Tyk2 Radioactive Kinase Assay; assay type: biochemical; details: read-out: Tyk2 JH1% Inhibition @ 10 μM
In short: (§1)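 Single-point screen: 10 μM test compound, radioactive kinase read-out, percent inhibition reported for each kinase domain.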

JAK2 kinase domain (JH1) = JAK2 kinase domain (JH1) (Homo sapiens (Human), UniProt O60674); test: JAK2 Radioactive Kinase Assay; assay type: biochemical; details: read-out: JAK2 JH1% Inhibition @ 10 μM
In short: as §1

[2] = target: Tyk2/JAK2 (heterodimeric complex) (Homo sapiens (Human), UniProt P29597); test: IL-12 Induced pSTAT4 in Human PBMC; assay type: cell-based; details: 1.7 ng/mL IL-12
Text: The IL-12 Induced pSTAT4 assay evaluates the inhibition of IL-12 induced STAT4 phophorylation mediated by Tyk2/JAK2 (heterodimeric complex).

[3] = target: JAK2/JAK2 homdimeric complex (Homo sapiens (Human), UniProt O60674); test: GM-CSF Induced pSTAT5 in Human PBMC; assay type: cell-based; details: GM-CSF 5 ng/mL for 20 minutes, pSTAT5 by MSD, read-out: PBMC_GMCSF_pSTAT5 IC50
Chain of JAK2/JAK2 homdimeric complex (O60674 whole entry): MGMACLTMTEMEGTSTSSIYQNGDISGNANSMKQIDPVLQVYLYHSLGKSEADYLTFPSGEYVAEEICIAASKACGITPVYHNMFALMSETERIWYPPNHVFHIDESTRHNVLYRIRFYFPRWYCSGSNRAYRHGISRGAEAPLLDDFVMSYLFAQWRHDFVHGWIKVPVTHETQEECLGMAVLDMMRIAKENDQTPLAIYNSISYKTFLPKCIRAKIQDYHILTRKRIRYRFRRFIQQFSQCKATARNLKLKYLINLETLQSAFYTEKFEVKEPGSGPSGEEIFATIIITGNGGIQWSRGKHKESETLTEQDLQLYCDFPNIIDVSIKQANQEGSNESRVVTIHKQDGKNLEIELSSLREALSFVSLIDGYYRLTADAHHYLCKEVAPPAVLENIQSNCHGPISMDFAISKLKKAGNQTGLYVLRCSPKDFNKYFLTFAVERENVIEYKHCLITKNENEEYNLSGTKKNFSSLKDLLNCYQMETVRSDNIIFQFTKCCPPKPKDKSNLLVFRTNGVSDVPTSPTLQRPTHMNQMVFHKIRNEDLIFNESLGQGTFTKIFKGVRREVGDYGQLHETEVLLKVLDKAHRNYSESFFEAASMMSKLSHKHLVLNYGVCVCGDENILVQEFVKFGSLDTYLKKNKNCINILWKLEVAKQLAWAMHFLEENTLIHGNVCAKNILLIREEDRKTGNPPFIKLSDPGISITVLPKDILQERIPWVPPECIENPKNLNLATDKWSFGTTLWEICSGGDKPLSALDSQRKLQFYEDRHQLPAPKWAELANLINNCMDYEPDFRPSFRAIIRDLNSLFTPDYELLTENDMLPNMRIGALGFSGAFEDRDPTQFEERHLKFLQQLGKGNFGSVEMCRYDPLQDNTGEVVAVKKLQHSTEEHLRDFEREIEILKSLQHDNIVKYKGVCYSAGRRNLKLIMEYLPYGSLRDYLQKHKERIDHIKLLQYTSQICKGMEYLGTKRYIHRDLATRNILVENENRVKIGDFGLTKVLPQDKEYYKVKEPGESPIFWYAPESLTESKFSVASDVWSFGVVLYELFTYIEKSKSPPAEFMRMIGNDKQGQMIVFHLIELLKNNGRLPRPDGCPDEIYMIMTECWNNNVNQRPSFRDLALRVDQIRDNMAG
Chain of JAK2/JAK2 homdimeric complex (P32927 17-897 partner): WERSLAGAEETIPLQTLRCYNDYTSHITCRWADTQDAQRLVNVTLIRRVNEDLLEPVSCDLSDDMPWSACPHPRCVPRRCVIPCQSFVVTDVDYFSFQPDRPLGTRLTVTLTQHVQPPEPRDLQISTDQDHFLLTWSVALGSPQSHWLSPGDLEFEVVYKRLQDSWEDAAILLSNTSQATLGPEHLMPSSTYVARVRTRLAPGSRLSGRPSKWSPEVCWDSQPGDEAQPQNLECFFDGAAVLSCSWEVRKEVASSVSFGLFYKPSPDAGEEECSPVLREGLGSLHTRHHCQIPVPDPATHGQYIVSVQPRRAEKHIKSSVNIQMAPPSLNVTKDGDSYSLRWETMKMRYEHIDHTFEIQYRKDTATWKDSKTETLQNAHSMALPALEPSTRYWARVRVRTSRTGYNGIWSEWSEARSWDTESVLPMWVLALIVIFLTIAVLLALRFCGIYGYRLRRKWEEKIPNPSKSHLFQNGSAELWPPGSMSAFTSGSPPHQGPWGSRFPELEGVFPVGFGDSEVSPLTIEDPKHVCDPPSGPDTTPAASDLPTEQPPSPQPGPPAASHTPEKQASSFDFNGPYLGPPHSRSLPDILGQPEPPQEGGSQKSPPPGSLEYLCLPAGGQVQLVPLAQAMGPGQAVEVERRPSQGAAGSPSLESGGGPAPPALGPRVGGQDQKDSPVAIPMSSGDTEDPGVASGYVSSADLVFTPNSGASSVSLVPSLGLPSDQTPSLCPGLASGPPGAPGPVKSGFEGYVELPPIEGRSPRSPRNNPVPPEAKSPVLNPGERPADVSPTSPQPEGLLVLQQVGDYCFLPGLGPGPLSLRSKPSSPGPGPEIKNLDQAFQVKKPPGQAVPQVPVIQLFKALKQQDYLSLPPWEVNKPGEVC

Chain of JAK2 kinase domain (JH1) (O60674 849-1124): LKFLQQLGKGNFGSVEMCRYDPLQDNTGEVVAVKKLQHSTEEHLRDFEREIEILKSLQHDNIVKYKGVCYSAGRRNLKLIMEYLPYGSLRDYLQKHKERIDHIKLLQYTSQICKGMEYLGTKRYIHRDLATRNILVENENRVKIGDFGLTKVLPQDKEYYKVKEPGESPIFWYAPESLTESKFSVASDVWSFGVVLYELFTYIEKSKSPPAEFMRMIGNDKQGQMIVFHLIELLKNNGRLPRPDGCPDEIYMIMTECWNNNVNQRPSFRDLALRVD
Chain of Tyk2 kinase domain (DH1) (P29597 897-1176): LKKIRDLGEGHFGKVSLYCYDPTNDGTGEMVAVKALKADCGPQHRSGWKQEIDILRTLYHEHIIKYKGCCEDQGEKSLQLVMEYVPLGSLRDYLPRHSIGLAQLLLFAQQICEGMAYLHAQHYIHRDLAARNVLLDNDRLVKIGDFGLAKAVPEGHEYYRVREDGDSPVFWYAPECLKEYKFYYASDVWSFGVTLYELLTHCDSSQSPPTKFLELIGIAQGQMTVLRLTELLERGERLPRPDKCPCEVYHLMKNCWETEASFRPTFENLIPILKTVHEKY
Chain of Tyk2/JAK2 (heterodimeric complex) (P29597 whole entry, other chains not shown): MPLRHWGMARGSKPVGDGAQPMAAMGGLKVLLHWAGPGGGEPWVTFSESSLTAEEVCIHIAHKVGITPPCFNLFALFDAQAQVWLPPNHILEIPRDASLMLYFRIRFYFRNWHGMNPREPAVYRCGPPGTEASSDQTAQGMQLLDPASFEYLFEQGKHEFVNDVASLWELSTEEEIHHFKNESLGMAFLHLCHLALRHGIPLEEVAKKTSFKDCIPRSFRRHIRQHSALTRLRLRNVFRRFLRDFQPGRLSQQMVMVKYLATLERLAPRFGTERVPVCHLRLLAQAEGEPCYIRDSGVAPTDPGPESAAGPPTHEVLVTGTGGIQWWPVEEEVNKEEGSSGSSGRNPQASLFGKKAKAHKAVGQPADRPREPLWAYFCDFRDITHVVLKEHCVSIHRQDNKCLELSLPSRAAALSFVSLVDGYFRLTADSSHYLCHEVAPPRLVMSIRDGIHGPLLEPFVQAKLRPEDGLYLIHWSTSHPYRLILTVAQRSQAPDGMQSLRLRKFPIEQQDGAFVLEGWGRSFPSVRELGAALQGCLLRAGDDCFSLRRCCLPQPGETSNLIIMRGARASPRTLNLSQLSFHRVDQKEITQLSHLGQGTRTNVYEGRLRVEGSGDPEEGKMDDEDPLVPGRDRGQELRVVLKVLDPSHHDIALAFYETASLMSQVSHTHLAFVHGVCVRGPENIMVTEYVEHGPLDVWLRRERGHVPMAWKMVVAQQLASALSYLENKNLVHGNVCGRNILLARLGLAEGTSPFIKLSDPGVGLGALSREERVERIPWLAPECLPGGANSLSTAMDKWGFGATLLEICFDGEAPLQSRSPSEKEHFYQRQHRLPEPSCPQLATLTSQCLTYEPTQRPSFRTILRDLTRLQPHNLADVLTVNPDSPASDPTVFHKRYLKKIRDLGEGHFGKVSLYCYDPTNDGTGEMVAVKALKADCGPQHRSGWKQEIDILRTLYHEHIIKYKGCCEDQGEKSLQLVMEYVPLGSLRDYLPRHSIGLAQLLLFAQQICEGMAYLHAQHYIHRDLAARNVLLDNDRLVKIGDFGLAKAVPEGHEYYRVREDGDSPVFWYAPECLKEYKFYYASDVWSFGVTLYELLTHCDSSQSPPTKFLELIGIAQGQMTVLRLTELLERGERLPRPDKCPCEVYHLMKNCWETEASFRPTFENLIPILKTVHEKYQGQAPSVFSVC
Chain of human TYK2 (JH2domain-pseudokinase) (P29597 556-888): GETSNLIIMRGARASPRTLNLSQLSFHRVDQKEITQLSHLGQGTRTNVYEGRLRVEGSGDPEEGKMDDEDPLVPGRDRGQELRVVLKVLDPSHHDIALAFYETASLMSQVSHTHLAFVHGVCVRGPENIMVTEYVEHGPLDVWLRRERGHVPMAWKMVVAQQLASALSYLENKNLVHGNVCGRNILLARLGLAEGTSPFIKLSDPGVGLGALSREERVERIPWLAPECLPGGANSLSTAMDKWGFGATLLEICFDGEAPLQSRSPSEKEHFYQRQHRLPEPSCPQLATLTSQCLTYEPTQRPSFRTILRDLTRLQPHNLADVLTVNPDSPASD

| SMILES | Kd [1] | inhibition at 10 µM (Tyk2 kinase domain (DH1); compound at 10 μM, ATP 10 μM) | inhibition at 10 µM (JAK2 kinase domain (JH1); compound at 10 μM, ATP 10 μM) | IC50 [2] | IC50 [3] | inhibition at 10 µM (Tyk2 kinase domain (DH1); 10 μM compound, 10 μM ATP) | inhibition at 10 µM (JAK2 kinase domain (JH1); 10 μM compound, 10 μM ATP) |
| --- | --- | --- | --- | --- | --- | --- | --- |
| [2H]C([2H])([2H])Oc1ncccc1Nc1cc(NC)n2ncc(C(=O)N[C@H]3C[C@H](O)C3)c2n1 [I-321, N-((1r, 3r)-3-hydroxycyclobutyl)-5-((2-(methoxy-d3)pyridin-3-yl)amino)-7-(methylamino)pyrazolo[1,5-a]pyrimidine-3-carboxamide] | < 0.2 nM | < 50% | < 50% | < 100 nM | > 2500 nM | – | – |
| CNc1cc(Nc2cc(C)cn(-c3cnn(C)c3)c2=O)nc2c(C(=O)N[C@H]3C[C@H]3F)cnn12 [I-235] | < 0.2 nM | < 50% | < 50% | < 100 nM | > 2500 nM | – | – |
| CNc1cc(Nc2cccn(-c3cnn(C)c3)c2=O)nc2c(C(=O)NC3CC3)cnn12 [I-295] | < 0.2 nM | < 50% | < 50% | < 100 nM | > 50000 nM | – | – |
| CNc1cc(Nc2cccc(N3CCCC3=O)n2)nc2c(C(=O)NC3CC3)cnn12 [I-7] | < 0.2 nM | < 50% | < 50% | < 100 nM | > 12500 nM | – | – |
| CNc1cc(-c2cn(C(C)C)c3ncc(C)cc23)nc2c(C(N)=O)cnn12 [I-255] | < 0.2 nM | < 50% | < 50% | < 100 nM | > 50000 nM | – | – |
| CNc1cc(Nc2cccc(N3CCCC3=O)n2)nc2c(C(N)=O)cnn12 [I-47] | < 0.2 nM | < 50% | < 50% | < 100 nM | > 300 nM | – | – |
| CNc1cc(Nc2cccc(-c3nccs3)c2Cl)nc2c(C(N)=O)cnn12 [I-16] | 0.2 to 1 nM | > 90% | 70 to 90% | < 100 nM | > 2500 nM | – | – |
| CNc1cc(Nc2cccn(-c3ccc(F)cn3)c2=O)nc2c(C(=O)N[C@H]3C[C@H]3F)cnn12 [I-115] | < 0.2 nM | < 50% | < 50% | < 100 nM | > 12500 nM | – | – |
| CNc1cc(-c2c[nH]c3c(C)cc(C)cc23)nc2c(C(N)=O)cnn12 [I-36, 5-(5,7-dimethyl-1H-indol-3-yl)-7-(methylamino)pyrazolo[1,5-a]pyrimidine-3-carboamide] | < 0.2 nM | < 50% | < 50% | < 100 nM | > 12500 nM | – | – |
| CNc1cc(Nc2cccn(-c3ccnc(C)n3)c2=O)nc2c(C(=O)N[C@@H]3C[C@@H]3F)cnn12 (stereo in doubt) [I-124, N-((1R,2S)-2-fluorocyclopropyl)-7-(methylamino)-5-((1-(2-methylpyrimidin-4-yl)-2-oxo-1,2-dihydropyridin-3-yl)amino)pyrazolo[1,5-a]pyrimidine-3-carboxamide] | < 0.2 nM | < 50% | < 50% | < 100 nM | > 12500 nM | – | – |
| CNc1cc(Nc2cccn(-c3ccc(C4CC4)nn3)c2=O)nc2c(C(=O)N[C@H]3C[C@H]3F)cnn12 [I-165] | < 0.2 nM | < 50% | < 50% | < 100 nM | > 2500 nM | – | – |
| CNc1cc(Nc2cccn(-c3cnc(C(=O)N(C)C)cn3)c2=O)nc2c(C(=O)N[C@H]3C[C@H]3F)cnn12 [I-126] | < 0.2 nM | < 50% | < 50% | < 100 nM | > 50000 nM | – | – |
| CNc1cc(Nc2cccn(-c3ccc(F)cc3)c2=O)nc2c(C(=O)NC3CCC3)cnn12 [I-246] | < 0.2 nM | < 50% | < 50% | < 100 nM | > 2500 nM | – | – |
| CNc1cc(Nc2cccc(N3CCOC3=O)n2)nc2c(C(=O)N[C@H]3C[C@H]3F)cnn12 [I-236] | < 0.2 nM | < 50% | < 50% | < 100 nM | > 2500 nM | – | – |
| CNc1cc(Nc2cccnc2OC2CC2)nc2c(C(=O)NC3CC3)cnn12 [I-215, 5-((2-cyclopropoxypyridin-3-yl)amino)-N-cyclopropyl-7-(methylamino) pyrazolo[1,5-a]pyrimidine-3-carboxamide] | < 0.2 nM | < 50% | < 50% | < 100 nM | > 50000 nM | – | – |

More lines, now with the values ahead:

| Kd [1] | inhibition at 10 µM (Tyk2 kinase domain (DH1); compound at 10 μM, ATP 10 μM) | inhibition at 10 µM (JAK2 kinase domain (JH1); compound at 10 μM, ATP 10 μM) | IC50 [2] | IC50 [3] | inhibition at 10 µM (Tyk2 kinase domain (DH1); 10 μM compound, 10 μM ATP) | inhibition at 10 µM (JAK2 kinase domain (JH1); 10 μM compound, 10 μM ATP) | SMILES |
| --- | --- | --- | --- | --- | --- | --- | --- |
| < 0.2 nM | < 50% | < 50% | < 100 nM | > 50000 nM | – | – | CNc1cc(Nc2cccn([C@H]3CC[C@](C)(OC)CC3)c2=O)nc2c(C(=O)N[C@H]3C[C@H]3F)cnn12 [I-362] |
| < 0.2 nM | < 50% | < 50% | < 100 nM | > 2500 nM | – | – | CNc1cc(Nc2cccn(-c3ncco3)c2=O)nc2c(C(=O)N[C@H]3C[C@H]3F)cnn12 [I-716] |
| < 0.2 nM | < 50% | < 50% | < 100 nM | > 2500 nM | – | – | CNc1cc(Nc2cccn(C3CCOCC3)c2=O)nc2c(C(=O)NC3CC3)cnn12 [I-329] |
| < 0.2 nM | < 50% | < 50% | < 100 nM | > 50000 nM | – | – | CNc1cc(Nc2cccn(-c3nc(C)co3)c2=O)nc2c(C(=O)N[C@@H]3CC[C@H]3O)cnn12 (stereo in doubt) [I-658, N-((1R,2R)-2-hydroxycyclobutyl)-7-(methylamino)-5-((1-(4-methyloxazol-2-yl)-2-oxo-1,2-dihydropyridin-3-yl)amino)pyrazolo[1,5-a]pyrimidine-3-carboxamide] |
| < 0.2 nM | < 50% | < 50% | < 100 nM | > 12500 nM | – | – | CNc1cc(-c2cn(CCN3CCCCC3)c3ncccc23)nc2c(C(=O)N[C@H]3C[C@H]3F)cnn12 [I-585] |
| < 0.2 nM | < 50% | < 50% | < 100 nM | > 12500 nM | – | – | CNc1cc(Nc2cccn(-c3nc(C)co3)c2=O)nc2c(C(=O)NC3CC3)cnn12 [I-368] |
| < 0.2 nM | < 50% | < 50% | 100 to 500 nM | > 2500 nM | – | – | CNc1cc(Nc2cccn([C@H]3CC[C@H](OC)CC3)c2=O)nc2c(C(=O)NCC3(CO)CC3)cnn12 [I-545] |
| < 0.2 nM | – | – | < 100 nM | > 50000 nM | < 50% | < 50% | CNc1cc(Nc2cccn(C(C)C)c2=O)nc2c(C(=O)N[C@@H]3CC[C@H]3O)cnn12 [I-918] |
| < 0.2 nM | < 50% | < 50% | < 100 nM | > 50000 nM | – | – | CNc1cc(Nc2cc(Cl)cn(C3CCCOC3)c2=O)nc2c(C(=O)NCC(C)(C)CO)cnn12 (stereo not drawn) [I-694] |
| < 0.2 nM | < 50% | < 50% | < 100 nM | > 12500 nM | – | – | CNc1cc(Nc2cc(F)cn(-c3cnn(C)c3)c2=O)nc2c(C(=O)N[C@H]3C[C@H]3F)cnn12 [I-381] |
| < 0.2 nM | < 50% | < 50% | < 100 nM | > 50000 nM | – | – | CNc1cc(Nc2cccn(C3CCN(CCF)CC3)c2=O)nc2c(C(=O)N[C@H]3C[C@H]3F)cnn12 [I-570] |
| < 0.2 nM | – | – | < 100 nM | > 12500 nM | < 50% | < 50% | CNc1cc(Nc2cccn3ccnc23)nc2c(C(=O)N[C@@H]3C[C@@H]3F)cnn12 [I-892] |
